Assay results as given in patent publication US12077566B2, “Mutants of recombinant immunoregulatory protein of Ganoderma lucidum and applications thereof” (priority 2017, dated 2024).

How the values were obtained:
[1] = tested on: rLZ-8 internalization in Hep G2 cells; assay: Inhibitor screening of rLZ-8 endocytosis; format: cell-based
Procedure: The rLZ-8 is labeled by an Alexa Fluor 568 fluorescent probe; then 10 μg/mL fluorescent labeled rLZ-8 acts on Hep G2 cells for 3 hours; whether the rLZ-8 enters the cell is observed with the ultrahigh resolution imaging system; and obtained images are reconstructed, fitted and further analyzed through an image analysis software of Imaris.
Inhibitors of different internalization ways are selected, respectively EIPA (macropinocytosis inhibitor), Wortmannin/LY294002 (P13K inhibitor), Nystatin+Progesterone (caveolae inhibitor) and Chlorpromazine (clathrin inhibitor); the inhibitors respectively act on the Hep G2 cells, and inhibitory effects of the inhibitors on rLZ-8 endocytosis are observed.

[2] = tested on: human liver cancer Hep G2 cells; conditions: for Mice weight after experiment: mouse, in vivo; for Mice tumor weight after experiment / Survival rate of mice after experiment: qd×28 i.v., rLZ-8 and mutants 0.5 mg/kg, sorafenib 50 mg/kg; for Survival rate of mice after experiment: 10 mice per group
From the text: Two weeks later, the model mice are divided into groups randomly, and each group has 10 mice. The administration method is caudal vein injection, once a day, for consecutive 28 days (qd×28, i.v.). […] During the experiment, if the mouse dies, the dead mouse is weighted on the same day, and the tumor tissue is taken out to be weighted. For the living mouse after administration for 28 days, the mouse is killed, and then the tumor tissue is taken out to be weighted. The death time and death number of the mice in each group are recorded in detail; the survival conditions of the mice of the experimental groups and the control groups are analyzed, and the survival rate is calculated, wherein the survival rate is obtained through subtracting the death number of the mice from the total number of the mice, and then dividing the difference by the total number of the mice.

[3] = tested on: transplanted liver cancer cells H22; conditions: mouse; cited from earlier work
[4] = tested on: human colon cancer SW480 cells; assay: Transplantation tumor model of human colon cancer SW480 cells; format: in vivo, BALB/c nude mice; conditions: after administration for 28 days
Procedure: The RPMI1640 medium containing 10% fetal bovine serum is selected for the human colon cancer SW480 cells, and then is placed in the CO2 constant-temperature incubator at 37° C. for culturing. The SW480 cells at the logarithmic phase are digested by pancreatin and thereafter washed with serum-free RPMI1640 medium; 2×10^6 cells are inoculated below the back skin of the BALB/c nude mice; after the tumor blocks for observation are formed and have the diameter larger than 0.5 cm, the mice are divided into groups randomly; and the transplantation tumor model of human colon cancer SW480 cells are constructed in the BALB/c nude mice.

Hep G2 cells = assay: Cell death after rLZ-8 internalization; format: cell-based; conditions: 100 μg/mL, 5 hours
From the text: With the ultrahigh resolution imaging system, the whole change process of the cell after the internalization of the rLZ-8 is observed in real time; and, combined with the above researches, the reason why the rLZ-8 causes the tumor cell death is judged.

[5] = tested on: EGFR, c-Met, PDGFR, N-cadherin and LDLR; assay: Immunofluorescence co-localization of rLZ-8 with membrane receptors; format: cell-based
Procedure: Considering that the high internalization degree of the rLZ-8 may be caused by the internalization after binding with a receptor on the cytomembrane, the rLZ-8 and the receptor on the cytomembrane are screened. Relationships between the different receptors on the cytomembrane and the tLZ-8 are measured through an immunofluorescence method. Fluorescent labels are made respectively on antibodies of EGFR, c-Met, PDGFR, N-cadherin and LDLR, and co-localization situations thereof with the rLZ-8 are respectively observed.

[6] = target: EGFR extracellular domain (Homo sapiens, UniProt P00533); assay: Affinity test by surface plasmon resonance (Biacore T200, CM5 chip); format: binding; conditions: EGFR extracellular domain coupled on CM5 chip, analyte 4-256 nM
Procedure: The Biacore™ T200 equipment (a Surface Plasmon Resonance from GE Company) is selected. Through the surface plasma resonance technology, the affinity of the rLZ-8 and the mutants thereof to the EGFR extracellular domain is tested. The CM5 chip is adopted to serve as the affinity test chip.
The EGFR extracellular domain (with an amino acid sequence of 25-645) serves as the ligand for coupling; 1 mg EGFR freeze-dried powders are diluted with HEPES buffer solution to a concentration of 400 μg/mL and set aside. Three 1.5 mL EP tubes are prepared; 10 μL ligand are respectively added into the three tubes, then 90 μL 10 mM sodium acetate with different pH values of 4.5, 5.0 and 5.5 are respectively added into the tubes and are mixed completely and uniformly; and a final concentration of the ligand is 40 μg/mL. Moreover, 200 μL 50 mM sodium acetate is added into another 1.5 mL EP tube.
The ligand has a molecular weight of 70 kDa, the analyte (rLZ-8) has a molecular weight of 12.4 kDa. In theory, one rLZ-8 […] can bind with one EGFR, and thus the stoichiometric ratio Sm is equal to 1. Through the following equations, the coupling amount RL of the ligand is calculated.
Through the experimental experience, the optimal reagent coupling amount is set to be 3*RL, and the coupling amount is set to be 1700 RU. The EGFR extracellular domain is successively coupled on the CM5 chip. […]

[7] = tested on: human breast cancer MCF7 cells; assay: Orthotopic transplantation tumor model of human breast cancer MCF7 cells; format: in vivo, BALB/c nude mice; conditions: after administration for 28 days
Procedure: One day before the experiment, 0.5 mg of 17ß estradiol sustained release tablet is embedded below the neck skin of the BALB/c nude mice.

S180 = conditions: mouse; cited from earlier work
[8] = tested on: human lung cancer A549 cells; assay: Orthotopic transplantation tumor model of human lung cancer A549 cells; conditions: after administration for 28 days;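 further: test animals were NOG mice aged 6-8 weeks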
Procedure: The human lung cancer A549 cell strain is selected. The NOG Mice of 6-8 weeks old are selected.
The DMEM containing 10% fetal bovine serum is selected for the human lung cancer A549 cells, and then is placed in the CO2 constant-temperature incubator at 37° C. for culturing. The A549 cells at the logarithmic phase are digested by pancreatin and thereafter washed with serum-free DMEM; the living cell concentration is adjusted to 1×10^8 cells per milliliter; 20 μL cell suspension is taken and inoculated at the lung of the NOG mice; two weeks later, the orthotopic transplantation tumor model of A549 lung cancer cells is constructed in the NOG mice.

**Q.** Which “Inhibitory effect on rLZ-8 internalization (in words)” value ([1]; Hep G2 cells) does the source give for `CCN(c1nc(N)c(C(=O)NC(=N)N)nc1Cl)C(C)C` [EIPA] here?
**A.** The value was “effectively inhibits the internalization of the rLZ-8”.

**Q.** For `CNC(=O)c1cc(Oc2ccc(NC(=O)Nc3ccc(Cl)c(C(F)(F)F)c3)cc2)ccn1` [Sorafenib, sorafenib, reference compound], which “Mice weight after experiment” value [2] is on record?
**A.** Its value is 19.6 ± 1.6 g.

**Q.** What about the “Mice tumor weight after experiment” value [2] of the same molecule?
**A.** The value was 0.82 ± 0.37 g.

**Q.** And the “Survival rate of mice after experiment” value [2]?
**A.** The value was 50%.

**Q.** Which “Inhibition of internalization efficiency of the rLZ-8” value [1] does the source give for mβCD here?
**A.** Its value is 50%.

**Q.** What does the source list for “rLZ-8: recombinant immunoprotein of Ganoderma lucidum, sequence SEQ ID NO: 1, expressed in Pichia pastoris”?
**A.** In vivo tumor growth (in words) [3]: can inhibit the in vivo growth; Mice tumor weight after experiment [4]: 1.94 ± 0.43 g; Cell death (in words) (Hep G2 cells): shrinkage, burst and death of Hep G2 cells happen; In vivo half-life period (in words) (In vivo half-life period): relatively short in vivo half-life period; Mice weight after experiment [2]: 19.8 ± 1.4 g; Mice tumor weight after experiment [2]: 0.62 ± 0.53 g; Survival rate of mice after experiment [2]: 60%; Co-localization with other internalization-related membrane receptors (in words) [5]: no co-localization phenomenon; Co-localization with the EGFR (in words) [5]: high-degree co-localization phenomenon; Dissociation rate constant (koff) [6]: 0.000583 s⁻¹; Ka [6]: 63400 M⁻¹ s⁻¹; Mice tumor weight after experiment [7]: 0.74 ± 0.35 g; In vivo tumor growth (in words) (S180): can inhibit the in vivo growth; Mice survival rate after experiment [8]: 50%; Mice tumor weight after experiment [8]: 0.60 ± 0.45 g; Mice weight after experiment [8]: 20.8 ± 1.5 g
